Key:
Type in all cases: physicochemical
[1] = Ceramide compatibility by differential scanning calorimetry (DSC): melting enthalpy and compatibility ratio; settings: for Peak area / Melting enthalpy: DSC; for Compatibility ratio 104+NPO / Compatibility ratio 104+NPS: from total melting enthalpy; for Compatibility ratio 104+NPO / Enthalpy (J/g) NPO / Compatibility ratio 104+NPS / Enthalpy (J/g) NPS: by 104 Ratio; for Enthalpy (J/g) NPO / Enthalpy (J/g) NPS: total melting enthalpy of mixed ceramides; for Enthalpy (J/g) NPO: 104 with NPO; for Melting enthalpy: total melting enthalpy of single unmixed ceramide; for Ratio: measured peak area / calculated theoretical value, PC-104 and NPS; for Enthalpy (J/g) NPS: 104 with NPS
Description: Ceramide compatibility was evaluated through measurement of differential scanning calorimetry (DSC). It is known that a ceramide compatibility study through DSC measurement may be utilized when measurement is not performed by polythermal and isothermal methods, or when slurry density of a solution is high, but has almost never been utilized in a ceramide study. In prediction of solubility of indomethacin (IMC) in polymers such as hydroxypropyl methylcellulose (HPMC) and polyvinylpyrrolidone (PVP), it was also confirmed that solubility prediction of a DSC method is excellent in a combination of IMC and HPMC. Since confirming compatibility between ceramides is a situation of confirming solubility when two solid-phase substances are mixed, a DSC experiment is determined to be very suitable, and thus the present inventors confirmed compatibility by measuring enthalpy of each ceramide, predicting enthalpy of a binary mixture, and actually measuring the same. For DSC measurement, a Thermal Analysis System (differential scanning calorimetry) such as Discovery DSC 250 of TA Instruments was used. In a DSC graph, melting enthalpy was measured by obtaining a peak area, and a unit of the peak area was J/g. A compatibility ratio was calculated by comparing a peak area measurement result of a sample in which ceramides are mixed and a calculated theoretical value (calculated sum area). A compatibility ratio is a ratio indicating compatibility when two components are mixed, and may be used to evaluate whether two components are stable even when mixed and may maintain desired characteristics.. […]
A single sample in which PC-104 and ceramide NP are unmixed (10:0 or 0:10), and samples in which PC-104 and ceramide NP are mixed at ratios such as 1:9 to 9.99:0.01, were each made, a DSC peak area was measured, and an actually measured DSC peak area and a calculated theoretical value according to a ratio of PC-104 and ceramide NP were compared. For compatibility evaluation, a ceramide mixing ratio having a low compatibility ratio was confirmed.

[2] = as above; settings: for Ratio: measured peak area / calculated theoretical value
[3] = Solubility of ceramide or ceramide mixture in pure ethanol (94.5% or more)
Text: Through Example 1, an effect of improvement of compatibility according to ceramide mixing confirmed through DSC measurement was confirmed. Accordingly, an effect of improvement of solubility was additionally confirmed. Specifically, solubility was confirmed as to how well the ceramide or the ceramide mixture dissolves in pure ethanol (94.5% or more).

[4] = PC-104 and NPO at stated weight mixing ratio
[5] = PC-104 and NPS at stated weight mixing ratio

Peak area [1, 4]	Compatibility ratio 104+NPO [1]	Enthalpy (J/g) NPO [1]	Melting enthalpy [1]	Ratio ([2]; PC-104 and NPO)	Peak area [1, 5]	Compatibility ratio 104+NPS [1]	Ratio [1]	Enthalpy (J/g) NPS [1]	EtOH solubility (mg/uL) [3]	Peak area ([2]; DSC, PC-104 and NPM at stated weight mixing ratio)	DSC enthalpy (J/g) of corresponding composition ([2]; PC-104 and NPM compositions of the solubility test)	Calculated sum area ([2]; calculated theoretical value from the two unmixed ceramides, PC-104 and NPM)	Compatibility ratio 104+NPM ([2]; from total melting enthalpy, by 104 Ratio)	Ratio ([2]; PC-104 and NPM)	Enthalpy (J/g) NPM ([2]; total melting enthalpy of mixed ceramides, 104 with NPM, by 104 Ratio)	SMILES
89.0 J/g	1.00	89.0 J/g	89.0 J/g	1.00												CCCCCCCC/C=C\CCCCCCCC(=O)N[C@@H](CO)[C@H](O)[C@H](O)CCCCCCCCCCCCCC [NPO, CERAMIDE NP(oleic acid)]
			114.6 J/g		114.6 J/g	1.00	1.00	114.6 J/g								CCCCCCCCCCCCCCCCCC(=O)NC(CO)C(O)C(O)CCCCCCCCCCCCCC (centres unmarked) [NPS, CERAMIDE NP(stearic acid)]
151.6 J/g	1.00	151.6 J/g	151.6 J/g	1.00	151.6 J/g	1.00	1.00	151.6 J/g	about 0.04636 mg/uL	151.6 J/g	151.6 J/g	151.6 J/g	1.00	1.00	151.6 J/g	CCCCCCCCCCCCCCCC(=O)N(CCO)CC(O)CN(CCO)C(=O)CCCCCCCCCCCCCCC [PC-104, HYDROXYPROPYL BISPALMITAMIDE MEA]

Reference: EP4772164A1, “CERAMIDE MIXTURE FOR IMPROVING COMPATIBILITY” (Amorepacific Corporation, priority 2023, dated 2025)
